*1 amine or outer side, *2 acyl side, *3 side chain or, on linkers, in order; H or OH if unused. Where a SMILES comes first, the peptide text is derived from it. Bridges are numbered along the chain shown (N, C = ends). [ ]: non-standard residue; d: D form. The star is where a group is joined. C20 diacid = O=C(O)CCCCCCCCCCCCCCCCCCC(=O)*; γGlu = O=C(O)[C@H](CCC(=O)[*:2])N[*:1]; Hyp = O=C(O)[C@@H]1C[C@@H](O)CN1; NMeI = CC[C@H](C)[C@H](NC)C(=O)O; Sar = CNCC(=O)O
Columns and labels:
[1] = target: T1, human amylin receptor 3 (hAMYR3), hCTR2 co-expressed with hRAMP3 (Homo sapiens, UniProt O60896+P30988); test: hAMYR3 cAMP assay (AlphaScreen) in COS7 cells; assay type: cell-based; conditions: cAMP induction, COS7 cells expressing hAMYR3; Table 1; read-out: hAMYR3 EC50
T1 construct: expressed in transfected cells
T1 sequence (P30988 25-474): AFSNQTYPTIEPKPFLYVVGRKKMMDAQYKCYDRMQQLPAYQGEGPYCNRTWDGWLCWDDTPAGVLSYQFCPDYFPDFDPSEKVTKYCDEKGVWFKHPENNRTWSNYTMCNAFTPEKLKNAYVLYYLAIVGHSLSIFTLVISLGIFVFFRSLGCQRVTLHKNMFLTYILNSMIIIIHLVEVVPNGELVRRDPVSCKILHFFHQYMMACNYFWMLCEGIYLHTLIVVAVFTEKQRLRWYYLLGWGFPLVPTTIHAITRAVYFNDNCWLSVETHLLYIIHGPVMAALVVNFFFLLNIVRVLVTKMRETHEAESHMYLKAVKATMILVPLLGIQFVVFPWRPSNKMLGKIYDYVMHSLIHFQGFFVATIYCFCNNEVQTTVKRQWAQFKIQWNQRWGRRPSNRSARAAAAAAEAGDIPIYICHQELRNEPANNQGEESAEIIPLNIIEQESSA
T1 sequence (O60896 24-148 partner): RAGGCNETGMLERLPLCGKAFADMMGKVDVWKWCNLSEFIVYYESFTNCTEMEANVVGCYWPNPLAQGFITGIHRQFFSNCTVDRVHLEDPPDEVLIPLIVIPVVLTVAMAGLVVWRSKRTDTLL
Excerpt: The cell line COS7, originating from African Green Monkey kidney fibroblast cells, was used for establishment of the stable cell lines described below. The COS7 cellular background was used due to it being RAMP naïve, and as such it provides the best available system for testing of the monomeric hCTR and different heterodimeric amylin receptor subtypes functionally generated by introduction of the individual RAMPs.
A cell line expressing the human amylin receptor 3 (hAMYR3) was generated in the COS7 cellular background as stable clones. In brief, hCTR2 (GI:4502547) and hRAMP3 (GI:118572586) were amplified by PCR using primers encoding terminal restriction sites for subcloning. The 5′-end primers additionally encoded a near Kozak consensus sequence to ensure efficient translation. The fidelity of the DNA encoding the receptor was confirmed by DNA sequencing. The PCR products encoding the receptor were subcloned into a proprietary tri-cistronic mammalian expression vector with RAMP3, hCTR2 and neomycin (G418) resistance marker. The mammalian expression vector encoding the receptor was transfected into COS7 cells by a standard liposome transfection method. 48 hours post-transfection, cells were seeded for limited dilution cloning and selected with 1 mg/ml G418 in the culture medium. After 3 weeks, surviving colonies of hAMY3R-expressing cells were picked, propagated and tested in the amylin efficacy assay as described in Example 3 below. The functional generation of the amylin receptor phenotype was verified in the efficacy assay by a left-shifted efficacy response to amylin relative to monomeric calcitonin receptor, and one hAMYR3-expressing clone was chosen for compound profiling.
In vitro activity of test peptides at the hCTR2 and hAMYR3 receptors was assessed by measuring the induction of cAMP following stimulation of the receptor using the AlphaScreen® cAMP Assay kit from Perkin-Elmer.
Briefly, COS7 cells expressing hCTR2 (see Example 2, above) were seeded at 30-40,000 cells per well in 96-well microtiter plates coated with 0.01% poly-L-lysine, and grown for 1 day in culture in 100 μl growth medium [DMEM, 10% FCS, Penicillin (100 IU/ml), Streptomycin (100 μg/ml)]. On the day of analysis, growth medium was removed and the cells were washed once with 200 μl Tyrode buffer [Tyrode's Salts (9.6 g/I), 10 mM HEPES, pH 7.4]. Cells were incubated in 100 μl Tyrode buffer containing increasing concentrations of test peptides, 100 µM IBMX and 0.1% casein for 15 min at 37° C. The reaction was stopped by carefully decanting off the compound/buffer medium and replacing it with lysis/detection buffer (80 μl 0.1% w/v BSA, 5 mM HEPES, 0.3% v/v Tween-20 in deionized water). After incubation at room temperature for 10 min., the cAMP content of the resulting cell lysate was estimated according to the AlphaScreen® cAMP Assay manufacturer's instructions. EC50 values were estimated by computer-aided curve fitting using the 4-parameter logistic (4PL) non-linear model.

[2] = Assessment of physical stability (Thioflavin T fibrillation); assay type: physicochemical; design: key: FND = fibrillation not detected; FD = fibrillation detected; conditions: 1 mg/ml, 40° C., ThT
Summary of the method: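 Fibrillation lag-time, in hours, taken where regressions of the initial stable phase and the growth phase intersect. ThT (40 μM) fluorescence monitored at 40 °C for 96 h, 10-min reads each preceded by 300 s mixing. Peptide at 1 mg/ml in 50 mM buffers: phosphate or histidine pH 7.0, acetate pH 4.0.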

| EC50 [1] [nM] | Fibrillation pH 4.0 (Ac) ([2]; 50 mM acetate buffer pH 4.0, 96 hours) | Fibrillation pH 7.0 (His) ([2]; 50 mM histidine buffer pH 7.0, 96 hours) | Fibrillation pH 7.0 (Phos.) ([2]; 50 mM phosphate buffer pH 7.0, 96 hours) | Compound |
| --- | --- | --- | --- | --- |
| 0.59 | FND | FD | FND | CC[C@H](C)[C@@H](C(=O)N[C@@H](CC(C)C)C(=O)N[C@@H](CO)C(=O)N[C@@H](CO)C(=O)N[C@H](C(=O)N[C@@H](CCC(=O)O)C(=O)N[C@H](C(=O)NCC(=O)N[C@@H](CO)C(=O)N[C@@H](CCC(=O)O)C(=O)N[C@H](C(=O)N1CCC[C@H]1C(N)=O)[C@@H](C)O)C(C)C)[C@@H](C)O)N(C)C(=O)[C@H](C)NC(=O)CN(C)C(=O)[C@H](Cc1ccccc1)NC(=O)[C@H](CO)NC(=O)[C@H](CO)NC(=O)[C@H](CCCNC(=N)N)NC(=O)[C@@H](NC(=O)[C@H](CC(C)C)NC(=O)[C@H](Cc1ccccc1)NC(=O)[C@H](Cc1c[nH]cn1)NC(=O)[C@H](C)NC(=O)[C@H](CC(C)C)NC(=O)[C@H](CCCNC(=N)N)NC(=O)[C@H](CCC(=O)O)NC(=O)[C@@H](NC(=O)[C@H](C)NC(=O)[C@@H]1CSSC[C@H](NC(=O)[C@H](CCCNC(=N)N)NC(=O)CC[C@H](NC(=O)CCCCCCCCCCCCCCCCCCC(=O)O)C(=O)O)C(=O)NCC(=O)N[C@@H]([C@@H](C)O)C(=O)N[C@@H](C)C(=O)N[C@@H]([C@@H](C)O)C(=O)N1)[C@@H](C)O)C(C)C [Compound 22, [19CD]-isoGlu-R-C( )-GTAT-C( )-ATERLAHFLVRSSF-Gly(Me)-A-Ile(Me)-LSSTEVGSETP-NH2] ({C20 diacid-γGlu}-RCGTATCATERLAHFLVRSSF[Sar]A[NMeI]LSSTEVGSETP-NH2; disulfide 2-7) |
| 0.094 |  |  |  | CC[C@H](C)[C@@H](C(=O)N[C@@H](CC(C)C)C(=O)N[C@@H](CO)C(=O)N[C@@H](CO)C(=O)N[C@H](C(=O)N[C@@H](CC(=O)O)C(=O)N[C@H](C(=O)NCC(=O)N[C@@H](CO)C(=O)N[C@@H](CC(N)=O)C(=O)N[C@H](C(=O)N1CCC[C@H]1C(N)=O)[C@@H](C)O)C(C)C)[C@@H](C)O)N(C)C(=O)[C@H](C)NC(=O)CN(C)C(=O)[C@H](Cc1ccccc1)NC(=O)[C@H](CO)NC(=O)[C@H](CO)NC(=O)[C@H](CCCNC(=N)N)NC(=O)[C@H](Cc1c[nH]cn1)NC(=O)[C@H](CC(C)C)NC(=O)[C@H](Cc1ccccc1)NC(=O)[C@H](Cc1c[nH]cn1)NC(=O)[C@H](C)NC(=O)[C@H](CC(C)C)NC(=O)[C@H](CCCNC(=N)N)NC(=O)[C@H](CC(=O)O)NC(=O)[C@@H](NC(=O)[C@H](C)NC(=O)[C@@H]1CSSC[C@H](NC(=O)[C@H](CCCNC(=N)N)NC(=O)CC[C@H](NC(=O)CCCCCCCCCCCCCCCCCCC(=O)O)C(=O)O)C(=O)N2CCC[C@H]2C(=O)N[C@@H]([C@@H](C)O)C(=O)N[C@@H](C)C(=O)N[C@@H]([C@@H](C)O)C(=O)N1)[C@@H](C)O [Compound 25, [19CD]-isoGlu-R-C( )-PTAT-C( )-ATDRLAHFLHRSSF-Gly(Me)-A-Ile(Me)-LSSTDVGSNTP-NH2] ({C20 diacid-γGlu}-RCPTATCATDRLAHFLHRSSF[Sar]A[NMeI]LSSTDVGSNTP-NH2; disulfide 2-7) |
| 0.12 |  |  |  | CC[C@H](C)[C@@H](C(=O)N[C@@H](CC(C)C)C(=O)N[C@@H](CO)C(=O)N[C@@H](CO)C(=O)N[C@H](C(=O)N[C@@H](CCC(=O)O)C(=O)N[C@H](C(=O)NCC(=O)N[C@@H](CO)C(=O)N[C@@H](CCC(=O)O)C(=O)N[C@H](C(=O)N1CCC[C@H]1C(N)=O)[C@@H](C)O)C(C)C)[C@@H](C)O)N(C)C(=O)[C@H](C)NC(=O)CN(C)C(=O)[C@H](Cc1ccccc1)NC(=O)[C@H](CO)NC(=O)[C@H](CO)NC(=O)[C@H](CCCNC(=N)N)NC(=O)[C@H](Cc1c[nH]cn1)NC(=O)[C@H](CC(C)C)NC(=O)[C@H](Cc1ccccc1)NC(=O)[C@H](Cc1c[nH]cn1)NC(=O)[C@H](C)NC(=O)[C@H](CC(C)C)NC(=O)[C@H](CCCNC(=N)N)NC(=O)[C@H](CCC(=O)O)NC(=O)[C@@H](NC(=O)[C@H](C)NC(=O)[C@@H]1CSSC[C@H](NC(=O)[C@H](CCCNC(=N)N)NC(=O)CC[C@H](NC(=O)CCCCCCCCCCCCCCCCCCC(=O)O)C(=O)O)C(=O)NCC(=O)N[C@@H]([C@@H](C)O)C(=O)N[C@@H](C)C(=O)N[C@@H]([C@@H](C)O)C(=O)N1)[C@@H](C)O [Compound 26, [19CD]-isoGlu-R-C( )-GTAT-C( )-ATERLAHFLHRSSF-Gly(Me)-A-Ile(Me)-LSSTEVGSETP-NH2] ({C20 diacid-γGlu}-RCGTATCATERLAHFLHRSSF[Sar]A[NMeI]LSSTEVGSETP-NH2; disulfide 2-7) |
| 0.34 |  |  |  | CC[C@H](C)[C@@H](C(=O)N[C@@H](CC(C)C)C(=O)N[C@@H](CO)C(=O)N[C@@H](CO)C(=O)N[C@H](C(=O)N[C@@H](CCC(=O)O)C(=O)N[C@H](C(=O)NCC(=O)N[C@@H](CO)C(=O)N[C@@H](Cc1ccccc1)C(=O)N[C@H](C(=O)N1C[C@H](O)C[C@H]1C(N)=O)[C@@H](C)O)C(C)C)[C@@H](C)O)N(C)C(=O)[C@H](C)NC(=O)CN(C)C(=O)[C@H](Cc1ccccc1)NC(=O)[C@H](CO)NC(=O)[C@H](CO)NC(=O)[C@H](CCCNC(=N)N)NC(=O)[C@@H](NC(=O)[C@H](CC(C)C)NC(=O)[C@H](Cc1ccccc1)NC(=O)[C@H](CC(=O)O)NC(=O)[C@H](C)NC(=O)[C@H](CC(C)C)NC(=O)[C@H](CCCNC(=N)N)NC(=O)[C@H](CCC(=O)O)NC(=O)[C@@H](NC(=O)[C@H](C)NC(=O)[C@@H]1CSSC[C@H](NC(=O)[C@H](CCCNC(=N)N)NC(=O)CC[C@H](NC(=O)CCCCCCCCCCCCCCCCCCC(=O)O)C(=O)O)C(=O)NCC(=O)N[C@@H]([C@@H](C)O)C(=O)N[C@@H](C)C(=O)N[C@@H]([C@@H](C)O)C(=O)N1)[C@@H](C)O)[C@@H](C)O [Compound 42, [19CD]-isoGlu-R-C( )-GTAT-C( )-ATERLADFLTRSSF-Gly(Me)-A-Ile(Me)-LSSTEVGSFT-Hyp-NH2] ({C20 diacid-γGlu}-RCGTATCATERLADFLTRSSF[Sar]A[NMeI]LSSTEVGSFT[Hyp]-NH2; disulfide 2-7) |
